Source: patent publication US8530489B2 (Vertex Pharmaceuticals Incorporated, priority 2006, dated 2013)

Legend:
Format in all cases: biochemical
[1] = target: PLK2 (Homo sapiens, UniProt Q9NYY3); experiment: PLK2 Inhibition Assay (radioactive-phosphate incorporation); details: selectivity ratio, PLK2 over PLK1
Procedure: (§1) The compounds of the present invention are evaluated as inhibitors of human PLK kinase using the following assays.
Compounds were screened for their ability to inhibit PLK2 using a radioactive-phosphate incorporation assay. Assays were carried out in a mixture of 25 mM HEPES (pH 7.5), 10 mM MgCl2, 0.1% BSA, and 2 mM DTT. Final substrate concentrations were 200 μM [γ-33P]ATP (57 mCi 33P ATP/mmol ATP, Amersham Pharmacia Biotech/Sigma Chemicals) and 300 μM peptide (KKKISDELMDATFADQEAK) [SEQ ID:3]. Assays were carried out at 25° C. in the presence of 25 nM PLK2. An assay stock buffer solution was prepared containing all of the reagents listed above, with the exception of ATP and the test compound of interest. 30 μL of the stock solution was placed in a 96 well plate followed by addition of 2 μL of DMSO stock containing serial dilutions of the test compound (typically starting from a final concentration of 10 μM with 2-fold serial dilutions) in duplicate (final DMSO concentration 5%). The plate was pre-incubated for 10 minutes at 25° C. and the reaction initiated by addition of 8 μL [γ-33P]ATP (final concentration 200 μM).
The reaction was stopped after 90 minutes by the addition of 100 μL 0.14 M phosphoric acid. A multiscreen phosphocellulose filter 96-well plate (Millipore, Cat No. MAPHN0B50) was pretreated with 100 μL 0.2M phosphoric acid prior to the addition of 125 μL of the stopped assay mixture. The plate was washed with 4×200 μL 0.2 M phosphoric acid. After drying, 100 μL Optiphase ‘SuperMix’ liquid scintillation cocktail (Perkin Elmer) was added to the well prior to scintillation counting (1450 Microbeta Liquid Scintillation Counter, Wallac).
(§2) After removing mean background values for all of the data points, Ki(app) data were calculated from non-linear regression analysis of the initial rate data using the Prism software package (GraphPad Prism version 3.0cx for Macintosh, GraphPad Software, San Diego Calif., USA).

[2] = target: T1, PLK3 (S38-A340) (Homo sapiens, UniProt Q9H4B4); experiment: PLK3 Inhibition Assay (radioactive-phosphate incorporation); details: selectivity ratio, PLK3 over PLK1
T1 construct: in the presence of 5 nM PLK3 (S38-A340)
Procedure: as §1
Compounds were screened for their ability to inhibit PLK3 using a radioactive-phosphate incorporation assay. Assays were carried out in a mixture of 25 mM HEPES (pH 7.5), 10 mM MgCl2, and 1 mM DTT. Final substrate concentrations were 75 μM [γ-33P]ATP (60 mCi 33P ATP/mmol ATP, Amersham Pharmacia Biotech/Sigma Chemicals) and 10 μM peptide (SAM68 protein Δ332-443). Assays were carried out at 25° C. in the presence of 5 nM PLK3 (S38-A340). An assay stock buffer solution was prepared containing all of the reagents listed above, with the exception of ATP and the test compound of interest. 30 μL of the stock solution was placed in a 96 well plate followed by addition of 2 μL of DMSO stock containing serial dilutions of the test compound (typically starting from a final concentration of 10 μM with 2-fold serial dilutions) in duplicate (final DMSO concentration 5%). The plate was pre-incubated for 10 minutes at 25° C. and the reaction initiated by addition of 8 μL [γ-33P]ATP (final concentration 75 μM).
The reaction was stopped after 60 minutes by the addition of 100 μL 0.14M phosphoric acid. A multiscreen phosphocellulose filter 96-well plate (Millipore, Cat No. MAPHN0B50) was pretreated with 100 μL 0.2M phosphoric acid prior to the addition of 125 μL of the stopped assay mixture. The plate was washed with 4×200 μL 0.2 M phosphoric acid. After drying, 100 μL Optiphase ‘SuperMix’ liquid scintillation cocktail (Perkin Elmer) was added to the well prior to scintillation counting (1450 Microbeta Liquid Scintillation Counter, Wallac).
as §2

[3] = target: PLK1 (Homo sapiens, UniProt P53350); experiment: PLK1 Inhibition Assay I (radioactive-phosphate incorporation); details: Ki(app); PLK1 Inhibition Assay I or II (table does not say which)
In short: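 Ki(app) values came from non-linear regression of initial rates after background subtraction, with phosphopeptide measured by phosphocellulose filter binding and scintillation counting. PLK1 at 2 nM was preincubated with compound (typically from 10 μM, 2-fold dilutions) for 10 min, then run 240 min at 25° C with 350 μM [γ-33P]ATP and 450 μM peptide substrate in HEPES pH 7.5 buffer.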

Chain of PLK2 (Q9NYY3 whole entry): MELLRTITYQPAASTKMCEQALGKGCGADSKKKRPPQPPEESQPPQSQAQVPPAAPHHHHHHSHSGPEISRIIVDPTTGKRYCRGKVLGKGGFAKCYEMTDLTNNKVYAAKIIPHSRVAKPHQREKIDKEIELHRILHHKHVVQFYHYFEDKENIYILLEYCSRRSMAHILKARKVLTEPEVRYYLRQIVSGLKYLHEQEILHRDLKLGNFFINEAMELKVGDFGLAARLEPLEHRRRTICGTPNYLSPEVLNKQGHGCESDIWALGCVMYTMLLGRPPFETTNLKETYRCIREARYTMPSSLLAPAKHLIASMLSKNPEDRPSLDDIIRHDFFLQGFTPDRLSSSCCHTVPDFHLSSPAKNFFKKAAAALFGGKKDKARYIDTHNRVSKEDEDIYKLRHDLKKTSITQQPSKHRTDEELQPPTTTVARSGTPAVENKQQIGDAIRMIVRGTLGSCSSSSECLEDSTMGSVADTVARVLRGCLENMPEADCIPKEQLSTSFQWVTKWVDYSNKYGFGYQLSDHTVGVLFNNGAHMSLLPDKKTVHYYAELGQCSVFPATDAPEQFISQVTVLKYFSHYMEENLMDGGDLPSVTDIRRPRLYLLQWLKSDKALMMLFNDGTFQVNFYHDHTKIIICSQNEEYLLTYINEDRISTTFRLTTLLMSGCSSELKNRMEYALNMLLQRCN
T1 sequence (Q9H4B4 58-340 limits assumed): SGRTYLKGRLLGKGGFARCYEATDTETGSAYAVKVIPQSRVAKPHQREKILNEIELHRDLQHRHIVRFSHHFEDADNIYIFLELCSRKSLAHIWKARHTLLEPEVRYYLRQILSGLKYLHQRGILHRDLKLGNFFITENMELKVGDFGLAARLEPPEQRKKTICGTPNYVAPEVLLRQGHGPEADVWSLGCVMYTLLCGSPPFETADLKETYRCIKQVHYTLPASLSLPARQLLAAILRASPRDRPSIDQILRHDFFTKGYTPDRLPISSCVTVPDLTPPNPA
Chain of PLK1 (P53350 whole entry): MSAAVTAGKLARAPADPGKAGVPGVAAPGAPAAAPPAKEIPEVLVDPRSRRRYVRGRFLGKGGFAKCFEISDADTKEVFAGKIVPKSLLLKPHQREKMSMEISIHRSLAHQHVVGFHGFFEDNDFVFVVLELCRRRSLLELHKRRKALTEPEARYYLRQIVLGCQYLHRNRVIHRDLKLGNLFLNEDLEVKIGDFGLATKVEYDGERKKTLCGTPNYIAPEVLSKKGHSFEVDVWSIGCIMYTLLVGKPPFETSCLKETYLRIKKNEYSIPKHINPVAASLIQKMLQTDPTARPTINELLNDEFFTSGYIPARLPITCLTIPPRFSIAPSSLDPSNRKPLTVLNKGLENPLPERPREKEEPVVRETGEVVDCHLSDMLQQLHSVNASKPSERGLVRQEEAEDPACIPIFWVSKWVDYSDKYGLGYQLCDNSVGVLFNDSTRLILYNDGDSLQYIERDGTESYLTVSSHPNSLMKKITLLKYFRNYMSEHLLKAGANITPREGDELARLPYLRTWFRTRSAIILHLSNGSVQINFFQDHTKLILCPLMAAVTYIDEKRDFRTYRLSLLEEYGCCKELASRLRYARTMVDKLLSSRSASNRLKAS

Compound | Ki(PLK2)/Ki(PLK1) [1] | Ki(PLK3)/Ki(PLK1) [2] | Ki [3]
C[C@@H](Nc1ncc(C#N)c(-c2c[nH]c3ncc(C(F)(F)F)cc23)n1)c1ccc(N2CCN(C)CC2)cc1 [Compound I-127, 2-((R)-1-(4-(4-methylpiperazin-1-yl)phenyl)ethylamino)-4-(5-(trifluoromethyl)-1H-pyrrolo[2,3-b]pyridin-3-yl)pyrimidine-5-carbonitrile] | 210 | 140 | < 3 nM
CC(Nc1ncc(C#N)c(-c2c[nH]c3ncc(C(F)(F)F)cc23)n1)c1ccc(N[C@@H]2CCNC2)nc1 (stereo partly drawn) [Compound I-272, 2-(1-(6-((R)-pyrrolidin-3-ylamino)pyridin-3-yl)ethylamino)-4-(5-(trifluoromethyl)-1H-pyrrolo[2,3-b]pyridin-3-yl)pyrimidine-5-carbonitrile] | 67 | 14 | < 3 nM
CC(Nc1ncc(C#N)c(-c2c[nH]c3ncc(C(F)(F)F)cc23)n1)c1ccc(N2CCNCC2)cc1 (stereo not drawn) [Compound I-124, 2-(1-(4-(piperazin-1-yl)phenyl)ethylamino)-4-(5-(trifluoromethyl)-1H-pyrrolo[2,3-b]pyridin-3-yl)pyrimidine-5-carbonitrile] | 323 | 185 | < 3 nM
CC(Nc1ncc(C#N)c(-c2c[nH]c3ncc(C(F)(F)F)cc23)n1)c1ccc(N2CCN(C)CC2)nc1 (stereo not drawn) [Compound I-139, 2-(1-(6-(4-methylpiperazin-1-yl)pyridin-3-yl)ethylamino)-4-(5-(trifluoromethyl)-1H-pyrrolo[2,3-b]pyridin-3-yl)pyrimidine-5-carbonitrile] | 1000 | 456 | < 3 nM
C[C@@H](Nc1ncc(C#N)c(-c2c[nH]c3ncc(C(F)(F)F)cc23)n1)c1ccc(N2CCN(C)CC2)c(F)c1 [Compound I-142, 2-((R)-1-(3-fluoro-4-(4-methylpiperazin-1-yl)phenyl)ethylamino)-4-(5-(trifluoromethyl)-1H-pyrrolo[2,3-b]pyridin-3-yl)pyrimidine-5-carbonitrile] | <30 | <23 | < 3 nM
